Measured values taken from patent US12029776B2, “Composition for treating cancer and use and medicament thereof” (NEWISH TECHNOLOGY (BEIJING) CO., LTD., priority 2020, dated 2024).
Structures can show the parent of a compound that is named as a salt.

system: liver cancer cell line; test: VEGFR2 inhibitors in combination with the SGLT1 inhibitor on the liver cancer cell line (Example 2); type: cell-based; conditions: combined with SGLT1 inhibitor sotagliflozin, FIG. 11-1 to 11-30
Protocol: Dimethyl sulfoxide (DMSO) can dissolve formazan in cells, and its light absorption value measured at 570 nm wavelength with an enzyme-linked immunodetector can indirectly reflect the number of living cells. Cell growth was determined by 3-(4,5-dimethylthiazol-2-yl)-2,5-diphenyltetrazolium bromide (MTT) assay in a 96-well plate. Specifically, the cells were digested and counted, and then resuspended into a system containing 5000 cells per 200 μL of culture medium and seeded in each well of a 96-well plate. The next day, the medium was replaced with a medium containing different concentrations of sotagliflozin, apatinib, lenvatinib, and the composition of them. After 48 or 72 hours of incubation with the drugs, 20 μL of MTT reagent was added to each well and incubated for 2 hours. After discarding the medium, the formazan deposit in the cells was dissolved in 100 μL of DMSO. The absorbance was measured at 570 nm by a microplate reader. Samples were used in quadruplicate in each group.

Molecule	tumor suppressive effect in combination with the SGLT1 inhibitor compared with single agent
Cc1cc(Nc2cc(N3CCN(C)CC3)nc(/C=C/c3ccccc3)n2)n[nH]1.O=C(O)C(O)C(O)C(=O)O [ENMD-2076 L-(+)-tartaric acid]	better tumor suppressive effect than as a single agent
Cc1cc(Nc2cc(N3CCN(C)CC3)nc(/C=C/c3ccccc3)n2)n[nH]1 [ENMD-2076]	better tumor suppressive effect than as a single agent
COc1cc2c(Oc3ccc4[nH]c(C)cc4c3F)ccnc2cc1OCC1(N)CC1 [anlotinib (AL3818) dihydrochloride]	better tumor suppressive effect than as a single agent
Cc1cc2c(F)c(Oc3ncnn4cc(OC[C@@H](C)OC(=O)[C@H](C)N)c(C)c34)ccc2[nH]1 [brivanib alaninate]	better tumor suppressive effect than as a single agent
Cc1cc2c(F)c(Oc3ncnn4cc(OC[C@@H](C)O)c(C)c34)ccc2[nH]1 [brivanib]	better tumor suppressive effect than as a single agent
COc1cc2nccc(Oc3ccc(NC(=O)C4(C(=O)Nc5ccc(F)cc5)CC4)cc3)c2cc1OC [cabozantinib malate]	better tumor suppressive effect than as a single agent
COc1cc2c(Oc3ccc4[nH]c(C)cc4c3F)ncnc2cc1OCCCN1CCCC1 [cediranib]	better tumor suppressive effect than as a single agent
CNC(=O)c1c(C)oc2cc(Oc3ncnc4cc(OC)c(OC)cc34)ccc12 [fruquintinib]	better tumor suppressive effect than as a single agent
COc1cc2nccc(Oc3ccc(NC(=O)NC4CC4)c(Cl)c3)c2cc1C(N)=O [lenvatinib mesylate]	better tumor suppressive effect than as a single agent
CCS(=O)(=O)O.COC(=O)c1ccc2c(c1)NC(=O)/C2=C(\Nc1ccc(N(C)C(=O)CN2CCN(C)CC2)cc1)c1ccccc1 [nintedanib ethanesulfonate salt]	better tumor suppressive effect than as a single agent
COC(=O)c1ccc2c(c1)NC(=O)/C2=C(\Nc1ccc(N(C)C(=O)CN2CCN(C)CC2)cc1)c1ccccc1 [nintedanib]	better tumor suppressive effect than as a single agent
CNC(=O)c1cc(Oc2ccc(NC(=O)Nc3ccc(Cl)c(C(F)(F)F)c3)c(F)c2)ccn1 [regorafenib]	better tumor suppressive effect than as a single agent
COCCNCc1ccc(-c2cc3nccc(Oc4ccc(NC(=O)C5(C(=O)Nc6ccc(F)cc6)CC5)cc4F)c3s2)nc1 [sitravatinib]	better tumor suppressive effect than as a single agent
O=C1c2c(O)cc(O)cc2O[C@H](c2ccc(O)c(O)c2)[C@H]1O [taxifolin]	better tumor suppressive effect than as a single agent
CNC(=O)c1cc(COc2nnc(Nc3ccc(Cl)cc3)c3ccoc23)ccn1 [telatinib]	better tumor suppressive effect than as a single agent
cediranib maleate	better tumor suppressive effect than as a single agent
vitamin E	better tumor suppressive effect than as a single agent

system: transplanted tumor of the liver cancer cell line Hep3B; test: Efficacy on the transplanted tumor in nude mice; conditions: FIG. 10
Protocol: Hep3B cells were cultured with 10% serum DMEM medium and were digested and counted after they grew into the logarithmic phase. […] Therefore, the present invention adopted a dose of 5*10e6 cells per nude mouse, and administration was performed in groups after the tumors grew into an average volume of 100 mm^3 in about 21 days. The administration was divided into a solvent control group, an apatinib 50 mg/kg oral administration group, a sotagliflozin 20 mg/kg intraperitoneal injection group, and a combination group of simultaneous apatinib 50 mg/kg oral administration and sotagliflozin 20 mg/kg intraperitoneal injection. The administration cycle was once every other day, and the tumor volumes were measured every Tuesday and Friday and calculated according to the formula V=a*b^2/2 (a is the measured long diameter of the tumor, b is the measured short diameter of the tumor). A graph was mapped using Graphpad prism 5 and the measurement results were analyzed statistically.

Molecule	sensitisation of the transplanted tumor to the growth inhibitory effect of apatinib
CCOc1ccc(Cc2cc([C@@H]3O[C@H](SC)[C@@H](O)[C@H](O)[C@H]3O)ccc2Cl)cc1 [sotagliflozin]	sensitive to the growth inhibitory effect of apatinib
